Measurements as given in patent US20240010993A1, “CELL CULTURE CHAMBER AND METHOD FOR CULTURING CELLS AND FOR THE IN VITRO PRODUCTION OF CELL LAYERS AND ORGAN MODELS” (Dynamic42 GmbH, priority 2021, published 2024).

Legend:
[1] = cited from earlier work
[2] = tested on: macrophages in co-culture with liver sinusoidal endothelial cells and hepatocytes; test: LPS addition to liver model to check activatability of immune cells (cytokine release); assay type: cell-based; conditions: LPS added at the tenth and fourteenth day of culture; FIG. 8
Experimental: In addition, lipopolysaccharide (LPS) was added to some samples at the tenth day and the fourteenth day to check the activatability of immune cells (macrophages) contained in the liver model, and the respective reactions were shown. The addition of LPS as a so-called pyrogenic substance represents a test for endotoxins that is customary in the art. Immune cells such as macrophages respond to this stimulus with increased release of cytokines. […] It can be deduced from this that macrophages in co-culture with the investigated liver sinusoidal endothelial cells and hepatocytes were capable of reacting with an immune response to an endotoxin even after 10 or after 14 days. This is important for being able to detect immune cell-mediated side effects of drugs.

[3] = adsorption effect of PBT in cell culture chambers (active substance adsorption); assay type: physicochemical; conditions: after 24 hours; both embodiments Chip PBT-BC1 and Chip PBT-BC2; control stock solution propiconazole 100 μM, troglitazone 64 μM
Experimental: After an incubation period of 24 h, at least 80% of the starting concentration of the propiconazole or the troglitazone is detectable in the culture medium (cf. FIG. 3A, FIG. 3B).
FIGS. 3A and 3B show results of experiments on the adsorption effect of PBT in two cell culture chambers 1 according to the disclosure of different designs. The designation, “Chip PBT-BC1,” denotes a first embodiment of the cell culture chamber 1, and “Chip PBT-BC2” a second embodiment. The first embodiment has a width B of 34.6 mm, a depth T of 6.56 mm, and a height H of 0.7 mm for the first channel 3. The second channel 4 has the dimensions of 44.8 mm, 3.6 mm, and 0.8 mm (W/D/H). The corresponding dimensions for the second embodiment, “Chip PBT-BC2,” of the cell culture chamber 1 are 34.6 mm, 8.06 mm, and 0.7 mm (W/D/H) for the first channel 3 and 49.4 mm, 5.61 mm, and 1.0 mm (B/T/H) for the second channel 4.
In comparison, a control in the form of a stock solution (100 μM) with propiconazole is given. […] In each case, it can be seen from the two graphics that, in both embodiments of the cell culture chamber 1 according to the disclosure, more than 85% of the propiconazole (FIG. 3A) and more than 80% of the troglitazone (FIG. 3B) in the culture medium 7 could be detected even after 24 hours.

[4] = after 24 hours in PDMS chips; binds irreversibly to PDMS; cited from earlier work

Which “log P” value [1] does the source give for `Cc1c(C)c2c(c(C)c1O)CCC(C)(COc1ccc(CC3SC(=O)NC3=O)cc1)O2` (stereo not shown) [troglitazone] here?
Its value is 3.60.

Which “concentration of IL-1beta after the addition of LPS” value [2] does the source give for lipopolysaccharide [LPS] here?
The value was “distinct increase”.

For `CCCC1COC(Cn2cncn2)(c2ccc(Cl)cc2Cl)O1` (stereo not shown) [propiconazole], which “percentage (RTC - ratio to control) remaining and detectable in the culture medium” value [3] is on record?
Its value is “more than 85%”.

What about the “detected fraction of the starting concentration in the culture medium” value [4] of the same compound?
Its value is “less than 30%”.
